In test [1] the test system is hPDE5 truncation mutants (R732L) fused to AcGFP in HCT 116 cells. The experiment in a line: Western blot for AcGFP of hPDE5 truncation mutants with Vardenafil. Conditions: 10 μM Vardenafil, 24 hours. It is filed as cell-based, human. The procedure:
Protein expression analysis of the truncation mutants was performed in parallel via western blot. […] GAPDH levels were also analyzed to ensure even protein loading.
(In general: Immunoblotting shows a protein as a band on a membrane.)

The test system of test [2] is hPDE5 mutants fused to GFP in HCT116 cells. The test can be described thus: Sildenafil dose response of combination mutants, MFI by FACS. It is filed as cell-based, human. The settings on record: for MFI / SR: 24 hours. On the procedure:
Mean fluorescence intensity (MFI) was measured by FACS. Parental HCT116 and cells expressing OT-hPDE5N-019 wildtype construct were also included as controls. […] The destabilizing mutation coefficient ratio was calculated as the fold change in GFP intensity in the hPDE5 mutant constructs compared to the hPDE5 wildtype construct (OT-hPDE5N-019) in the absence of the ligand. Destabilizing mutation coefficient ratios less than 1 are desirable. Stabilization ratios greater than 1 are desired in DDs.
In general terms: In flow cytometry, cells or beads pass a laser one at a time.

For “OT-hPDE5N-020: construct consisting of E535-Q860 amino acids of hPDE5 with the R732L mutant, SG linker, AcGFP; single mutant construct”, in test [1], the “AcGFP protein (western blot) with Vardenafil” value is on record as “showed vardenafil dependent stabilization”. Besides, the MFI is 6172 in test [2] (DMSO, HCT116); 5299 in test [2] (Sildenafil 0.04 μM); 6441 in test [2] (Sildenafil 0.12 μM); 12739 in test [2] (Sildenafil 0.37 μM); 15952 in test [2] (Sildenafil 1.11 μM); 23549 in test [2] (Sildenafil 3.33 μM). In addition, the MFI in test [2] (Sildenafil 10 μM) is reported as 27693; in test [2] (Sildenafil 30 μM) it was 47992. Moreover, the SR in test [2] (Sildenafil 0.04 μM vs DMSO) was found to be 0.86; in test [2] (Sildenafil 0.12 μM vs DMSO) it was 1.04; in test [2] (Sildenafil 0.37 μM vs DMSO), 2.06; in test [2] (Sildenafil 1.11 μM vs DMSO) it was 2.58; in test [2] (Sildenafil 3.33 μM vs DMSO) it was 3.82; in test [2] (Sildenafil 10 μM vs DMSO) it was 4.49. Besides, the SR in test [2] (Sildenafil 30 μM vs DMSO) turned out to be 7.78. Besides, in test [2] (Sildenafil dose response experiment, absence of ligand, vs OT-hPDE5N-019), the “destabilizing mutation co-efficient ratio” value turned out to be 0.1.
